A melting point compilation (Tetko et al.; mined from patent text by program, amines drawn as free bases though some values may be those of a salt)

Row | SMILES | melting point [°C]
1 | O=c1[nH]ncc2[nH]c(-c3ccc(OC(F)F)c(OC4CCC4)c3)cc12 | 289 to 291
2 | CC(=O)OS(=O)(=O)c1ccc(C)cc1 | 56 to 60
3 | COc1cc(C(=O)Nc2ccc3c(c2)CCN(C)C3)cc(OC)c1OC | 234 to 235
4 | COc1ccc(CNc2nc(N3CCC[C@H]3CO)ncc2C(=O)Nc2cncnc2)cc1Cl | 192 to 195
5 | COC1=CC(=O)c2c(C)cc(C)cc2C1=O | 146 to 148
6 | CC1(C)CC(O)CC(C)(C)N1Cc1ccc(CN2C(C)(C)CC(O)CC2(C)C)cc1 | 237 to 239
7 | CC(C)CCC(O)C(C)C1CC=C2C3=C(CCC21C)C1(C)CCC(OC(=O)c2ccccc2)C(C)(C)C1CC3 (stereo not drawn) | 142 to 143
8 | Cc1ccc([N+](=O)[O-])c(C=C2C(=O)NC(=O)N2C)c1 | 261 to 262
9 | Nc1nc(N)nc(-c2ccc3c(c2)OC(F)(F)C(F)(F)O3)n1 | 176 to 179
10 | CC(C)[C@H](NC(=O)N(C)Cc1ccccn1)C(=O)N[C@@H](Cc1ccccc1)C[C@H](O)[C@H](Cc1ccccc1)NC(=O)[C@@H](NC(=O)N(C)Cc1ccccn1)C(C)C | 92 to 96
11 | CCC[C@H]1CC[C@H](c2ccc(OCC)c(C#N)c2)CC1 | 32
12 | CC(=NO)c1ccc(Cl)c(S(N)(=O)=O)c1 | 157 to 158
13 | COC(=O)C(CC(N)C(=O)O)CC(N)N1C=CC=CC1 (stereo not drawn) | 240 to 242
14 | O=C1c2ccccc2CN2C(=O)CCC12 (stereo not drawn) | 105 to 107
15 | N#Cc1ccc2c(c1)CC[C@@H](c1ccc(F)cc1)[C@H]2Cn1cncn1 (relative stereo) | 149
16 | CC(C)(c1ccccc1)c1cccc(S(=O)(=O)NC(CCCNC(=N)N)C(=O)N2CCC(CC(=O)O)CC2)c1 (stereo not drawn) | 188 to 191
17 | O=C(O)c1ccc(C#Cc2ccc(O)c(C34CC5CC(CC(C5)C3)C4)c2)cc1 | 254 to 255
18 | CCOC(=O)c1ccc(-n2ccnc2C)cc1 | 72 to 73
19 | CCOC(=O)c1cn2c(n1)CN(C(=O)CCl)c1ccccc1-2 | 178 to 183

Row | SMILES | melting point [°C]
20 | CCCCCCCCCCCCCCCCCCOc1ccc(OCCCc2ccccc2)c(C(=O)N(CC(=O)O)CC(=O)O)c1 | 101 to 102
21 | O=C1c2cc([N+](=O)[O-])ccc2OCCC1Br (stereo not drawn) | 115 to 118
22 | Cc1cncc2cc(S(N)(=O)=O)oc12 | 180 to 182
23 | CC(C)(C)OC(=O)c1ncn2c1[C@@H]1CCCN1C(=O)c1c(Br)cccc1-2 | 206 to 208
24 | CONC1=NC(=O)C(=Cc2cccc(-c3cc(F)c(O)c(C45CC6CC(CC(C6)C4)C5)c3)c2)S1 | 286 to 288
25 | O=C(O)Cc1ccc(N2CC3CCCCC3C2=O)cc1 (stereo not drawn) | 157 to 159
26 | Cc1c(F)c(F)cc(C#N)c1Cl | 59 to 61
27 | O=C(O)CP(=O)(O)CCCc1ccccc1 | 118 to 119
28 | COc1ccc(-c2cnc[nH]c2=O)cc1OC | 205 to 206
29 | CCCCN=C(O)c1c(Cl)c(Sc2ccccc2)c(Sc2ccccc2)c(Cl)c1C(=O)O | 215 to 216
30 | CC1(C)C(=O)Nc2ccc(C3=NNC(=O)CC3)cc21 | > 300
31 | Cc1ccccc1C=CC(=O)c1c(C)n(CCN2CCOCC2)c2ccccc12 | 131 to 135
32 | CC(C)C(C(=O)O)c1ccc2sccc2c1 (stereo not drawn) | 150 to 151
33 | N#Cc1cccc(OC2SCC(O)C(O)C2O)c1 (stereo not drawn) | 130 to 135
34 | CCn1c(Cl)c(C=NO)c(=O)n(CC)c1=O | 92 to 94
35 | CCOC(=O)Cn1ncc(CC)c1O | 77 to 78
36 | COC(=O)CCC(=O)c1ccc(CCCCCCNC(C)=O)cc1 | 87 to 89
37 | CC(C)OCc1c(S(C)(=O)=O)ccc(Br)c1Cl | 87 to 91
38 | CCCCNC(=O)NS(=O)(=O)c1c(C(=O)OC)cnn1C | 88 to 90

Row | SMILES | melting point [°C]
39 | CC(C)C(=O)CNC(=O)c1ccc(Cl)cc1 | 118 to 119
40 | C#CCC(CC#C)NC(=O)OC(C)(C)C | 64 to 67
41 | OC(c1cc(F)cc(F)c1)c1cc(F)cc(F)c1 | 62
42 | Nc1ncnc2c1nc(O)n2CCc1ccccc1 | 256 to 258
43 | CCOC(=O)c1nc(N)sc1-c1ccccn1 | 186 to 187
44 | CC(=O)NCC1CN(c2ccc(N3CCC(O)(C(F)(F)F)C(C)C3)c(F)c2)C(=O)O1 (stereo not drawn) | 144 to 146
45 | CC(C)(C)OC(=O)NC1CCCCCC=CC2CC2(C(=O)NS(=O)(=O)C2CC2)NC(=O)C2CC(OC(=O)c3ccccc3)CN2C1=O (stereo not drawn) | 140 to 142
46 | O=S(=O)(Nc1ccc(Cl)cc1C1=NN(c2ccccc2)CC1)C(F)(F)F | 138 to 163
47 | CO[C@]1(c2csc(Sc3ccc(/C(C)=N/O)cc3)c2)CCO[C@@H]1C (racemic) | 89 to 90
48 | C=Cc1cnc2c([N+](=O)[O-])cccc2c1 | 116 to 117
49 | C=CCONC(O)(CC)C1C(=O)C=C(CC)OC1=O (stereo not drawn) | 62.5 to 64
50 | c1ccn2c(SCCN3CCNCC3)nnc2c1 | 104
51 | CCCC(=O)c1cnc2ccsc2c1Cl | 78 to 80
52 | CC(=O)NCCCC(C)C1CC=C2C3=C(CCC21C)C1(C)CCC(O)C(C)(C)C1CC3 (stereo not drawn) | 219 to 221
53 | CCCCCCCOc1cc2c(cc1C(=O)c1ccc(C(=O)O)cc1)C(C)(C)CCC2(C)C | 154 to 158
54 | CC(C)c1nc(COC(N)=O)n(C)c1Sc1cc(Cl)cc(Cl)c1 | 146 to 148
55 | Fc1cc(CC2(Cc3ccnc(F)c3)c3ccccc3-c3cccnc32)ccn1 | 128 to 130
56 | CN1Cc2c(-c3nnc(CCl)o3)ncn2-c2ccccc2C1=O | 221 to 222
57 | CC(C)(SC(F)(F)F)C(O)C(Oc1ccc(Cl)cc1)n1cncn1 (stereo not drawn) | 85 to 87

Second part, the compound after the results:

Row | melting point [°C] | SMILES
58 | 53 to 54 | COc1c(C)c(C)c(OC)c(Cc2ccccc2)c1C
59 | 230 to 231 | CN(C)C1CCN(S(=O)(=O)c2ccc(Nc3ccnc4cc(Cl)ccc34)cc2)CC1
60 | 168 to 170 | CCOC(=O)c1cccc(Nc2nc3ccccc3o2)c1
61 | 205 to 210 | CN(C)CCOc1ccc2[nH]c(C(=O)N3CC(CCl)c4c3cc([N+](=O)[O-])c3cc(S(=O)(=O)NCCO)ccc43)cc2c1 (stereo not drawn)
62 | 139 to 140 | O=C(O)CN(CCc1ccccc1)C(=O)CCc1nc2c(F)c(F)cc(F)c2s1
63 | > 300 | O=C(O)c1[nH]c(=O)c2ccc(Cl)cc2c1-c1ccccc1
64 | 121 | CCOC(=O)c1ccc(C#CC(O)c2cc(-c3ccccc3)cc3c2C(C)(C)CCC3(C)C)cc1 (stereo not drawn)
65 | 78.5 to 79.5 | COc1ccc(CC(=O)c2ccc(OC)cc2OC)cc1
66 | 252 | CCc1nc2c(C)cc(C)nc2n1Cc1ccc2nc(-c3ccccc3NS(=O)(=O)C(F)(F)F)ccc2c1
67 | 126 to 128 | CCCCc1nc2ccccn2c(=O)c1-c1ccc(N2CCN(C(=O)OC(C)(C)C)CC2)nc1
68 | 156 to 158 | O=C(O)COC1=C(Cc2ccc3c(Cl)cccc3c2)C(=O)CC1
69 | 250 to 254 | Cc1ccc(-c2ncc(O)nc2-c2ccc(C)cc2)cc1
70 | 211 to 218 | CC#Cc1ccc(NC(=O)c2cccnc2NCc2ccc(=O)[nH]c2)cc1C(F)(F)F
71 | 160 to 161 | CCCCn1c(=O)c(NC(=O)Nc2c(C(C)C)cc(NCc3cccnc3)cc2C(C)C)c(-c2cccc(OC)c2)c2cccnc21
72 | 225 | Cc1nc2cccc(S(=O)(=O)n3c(CCCC(=O)O)cc4nc(Cl)ccc43)c2s1
73 | 123 to 124 | O=c1oc(-c2cccc(Cl)c2)cc(O)c1SCCCCc1ccccc1
74 | 126 to 128 | COc1ccc(CCCO)cc1OCc1coc(/C=C/c2ccccc2)n1
75 | 74 to 75 | O=S(=O)(CC(F)(F)F)Nc1ccc(N2CCN(c3ccc(OCC(O)(Cn4cncn4)c4ccc(Cl)cc4Cl)cc3)CC2)cc1 (stereo not drawn)
76 | 152 to 153 | Cn1c(-c2ccccc2Cl)cc2ncccc2c1=O
77 | 83 to 84 | N#Cc1ccccc1CN1CCC(=O)C(C(c2ccc(F)cc2)c2ccc(F)cc2)C1 (stereo not drawn)
78 | 74 to 76 | CN(CCOc1cccc2ccn(C(=O)OC(C)(C)C)c12)C(=O)OC(C)(C)C

Row | melting point [°C] | SMILES
79 | 170 to 175 | COCc1cc(OC)c(-c2ccc(C[C@H](NC(=O)c3c(F)cccc3Cl)C(=O)O)cc2)c(OC)c1
80 | 104 | Oc1cccc2ccc3cccnc3c12
81 | 239 to 241 | Cc1ccc(-c2nc3ccccc3c(=O)[nH]2)cc1
82 | 135 to 136 | C=C1C(=O)c2ccccc2OC1c1ccc([N+](=O)[O-])cc1 (stereo not drawn)
83 | 141 to 142 | COC(=O)C(C)(C)Cc1c(SC(C)(C)C)c2cc(OCc3cnccn3)ccc2n1Cc1ccc(Cl)cc1
84 | 83 to 85 | COC(=O)c1cccc2nc(SCCCN3CCCN(CC(=O)Nc4c(C(C)C)cccc4C(C)C)CC3)oc12
85 | 192 to 193 | CCn1cc(C(=O)NCc2ccc(Cl)cc2)c(=O)c2cc(CCl)oc21
86 | 167 to 168 | CN1CCN(Cc2ccc3c(=O)n(CCCCN4CC=C(c5ccccc5)CC4)c(=O)[nH]c3c2)CC1
87 | 120 | O=C(Nc1ccc(Cl)cc1)Oc1ccc2c(c1)N(Cc1ccccc1)CCC2
88 | 232 to 233 | Cc1c(NC(=O)c2ccc(C#CC3(O)CCC3)cc2)ccc2cc(CNCC(C)(C)C)n(C)c12
89 | 117 to 119 | Cc1cccc(NC(=O)NC2CN(C(=O)NC3CCCCC3)c3ccccc3N(CC(=O)c3ccccc3C)C2=O)c1 (stereo not drawn)
90 | > 300 | Clc1nc2ccccc2c2c1ncn2Cc1ccncc1
91 | 158 to 162 | Cc1ccccc1N=c1scc(-c2ccc(Cl)c(S(=O)(=O)N(C)C)c2)n1C
92 | 93 to 96 | O[C@@H](CNCCOc1ccc2oc(-c3ccon3)cc2c1)COc1ccccc1Cl
93 | 116 | CC1C(=O)N(c2cccc(F)c2)C(=S)N1c1ccc(Oc2ccccc2)cc1 (stereo not drawn)
94 | 140 to 143 | Clc1ccc2oc(-c3ccccc3)cc2c1
95 | 122 to 124 | COc1ccc(C2Sc3c(ccc4ccccc34)N(CCN(C)C)C(=O)C2OC(C)=O)cc1 (stereo not drawn)
96 | 175 to 177 | COc1cc(OC)c2c(=O)[nH]c(-c3cccc(N4CCN(CCO)CC4)n3)nc2c1
97 | 167 to 170 | COc1ccc(NC(=O)c2ccc(-c3ccc(C(=O)N4CCC4)cc3C)cc2)cc1N1CCN(C)CC1
98 | 101 to 102 | O=C(NCCCO)c1cccc(-c2cccc(Oc3cc(Cl)cc(Cl)c3)n2)c1
